# “And” between values parts separate entries of the source, which are not always exact repeats. Identical values can stand only once. Like-named read-outs stand apart in the source and are kept apart here.
# How the values were obtained:
# [1] = system: SARS-CoV-2 Omicron B1.1.592; experiment: microbe, parasite or virus in culture; assay type: cell-based; conditions: Severe acute respiratory syndrome coronavirus 2, Calu-3, 24 h
# Vero cells = conditions: Vero 24 h 5% FBS
# HCoV 229E = experiment: Virus yield reduction assay, HCoV-229E on MRC-5 cells (RT-qPCR); assay type: cell-based; conditions: Human coronavirus 229E, MRC5, MOI 0.001, 48 h
# Description: The virus yield reduction assay of HCoV-229E and HCoV-OC43 was performed on MRC-5 cells seeded at 1.5x10^5 cells per well in 24-well plates 24 h prior infection with HCoV-229E (MOI 0.001) or HCoV-OC43 (MOI 0.1) for 1 h. The inoculum was completely removed, and the cells were treated with different concentrations of zapnometinib (50 µM to 0.006 µM) and a solvent control in Iscove’s Modified Dulbecco’s Medium (IMDM) containing 2% FBS, 1% Penicillin/Streptomycin at 34°C, 5% CO2 for 24 h (HCoV-OC43) or 48 h (HCoV-229E). Supernatants were harvested and the viral titer was determined by a real-time one-step multiplex RT-qPCR using specific primers targeting the N and NS2 genes for HCoV-229E and HCoV-OC43 respectively ( Supplementary Table 1 ) EC50 values were calculated based on the measured viral titers normalized to the solvent control (1% DMSO) and using the “log(inhibitor) vs. response - Variable slope (four parameters)” analysis in GraphPad Prism v9.
# [2] = system: lymphocytes, T cells and B cells; experiment: RESPIRE Phase 2 trial, lymphocytes, T and B cells in blood (flow cytometry); assay type: in vivo, human; conditions: 30-day observation period
# Description: Patients receiving glucocorticoids as standard of care treatment were excluded from the analyses. Experiments were performed by CheckImmune GmbH according to the companies’ SOPs. In short, presence of lymphocytes, T cells and B cells were determined using Flow cytometry analysis. Fresh whole blood from hospitalized SARS-CoV-2 infected patients was stained with the aforementioned DuraClone antibody panels for 15 min at room-temperature and lysed for 15 min at room temperature following the standard staining protocol. Sample acquisition was carried out using the Navios Flow Cytometer (Beckman Coulter). Data analysis was conducted using Kaluza software before being sent to the LIMS system. This procedure is fit for purpose validated under ISO and GCP guidelines.
# [3] = parameters: method as in PMID 38106555; conditions: hospitalized COVID-19 patients; cited from earlier work
# [4] = system: SARS-CoV-2 (BetaCoV/Munich/BavPat1/2020)
# [5] = system: cytokine and chemokine levels; experiment: RESPIRE Phase 2 trial, cytokines/chemokines in hospitalized COVID-19 patients (MesoScale V-Plex); assay type: in vivo, human; conditions: vs placebo
# Excerpt: For standard of care treatment see Supplementary Table 5 .
# [6] = system: cytokine and chemokine gene expression; experiment: LPS-induced acute lung injury (ALI) mouse model, lung cytokine/chemokine mRNA (RT2 profiler PCR array)
smiles,measurement,setting,value
O=C(O)c1ccc(F)c(F)c1Nc1ccc(I)cc1Cl [zapnometinib],EC50,[1],37.9 µM and 15.5 µg/mL
same,%LDH release compared to maximum LDH release,Vero cells; 0.39 µM,0.35%
same,%LDH release compared to maximum LDH release,Vero cells; 0.78 µM,0.41%
same,%LDH release compared to maximum LDH release,Vero cells; 1.56 µM,0.41%
same,%LDH release compared to maximum LDH release,Vero cells; 3.13 µM,-0.37%
same,%LDH release compared to maximum LDH release,Vero cells; 6.25 µM,0.02%
same,%LDH release compared to maximum LDH release,Vero cells; 12.50 µM,0.31%
same,%LDH release compared to maximum LDH release,Vero cells; 25.00 µM,0.12%
same,%LDH release compared to maximum LDH release,Vero cells; 50.00 µM,0.49%
same,%LDH release compared to maximum LDH release,Vero cells; 75.00 µM,0.83%
same,%LDH release compared to maximum LDH release,Vero cells; 100.00 µM,1.44%
same,EC50,HCoV 229E,26.6 µM and 10.9 µg/mL
same,"Lymphocytes, Increase compared to Placebo",[2],44.5%
same,"Plasma B cells, Increase compared to Placebo",[2],61.8%
same,"Memory B cells, Increase compared to Placebo",[2]; p = 0.0377,-37.4%
same,"T cells, Increase compared to Placebo",[2]; p = 0.0409,73.7%
same,safety and tolerability,[3],safe and well-tolerated
same,tolerability,"[4]; 100 mg/kg then 75 mg/kg daily p.o., both groups",well tolerated
same,viral titers in nasal turbinates,"[4]; […], did not reach statistical significance",trend toward lower mean viral titers
same,"lung inflammation (infiltrating inflammatory cells, consolidation, decreased air containing space)","[4]; hamster, in vivo",less severe
same,mean body weight loss,"[4]; hamster, in vivo",8-11%
same,mean viral titer in throat swabs,"[4]; hamster, in vivo","still lower in the throat swabs of drug-treated animals, although no statistically significant differences"
same,percentage of lung injury in lung tissue (gross pathology),"[4]; hamster, in vivo",significantly reduced
same,reduction in replication-competent virus in throat swabs (TCID50 assay),"[4]; hamster, in vivo",1.1 log10 and 1.3 log10
same,reduction of infectious viral titer in nasal turbinates (TCID50 assay),"[4]; hamster, in vivo",1.3 log10
same,reduction of viral load in nasal turbinates (RT-qPCR),"[4]; hamster, in vivo",1.1 log10
same,viral load in throat swabs,"[4]; hamster, in vivo",comparable
same,viral titer reduction (number of viral copies) in throat swabs (RT-qPCR),"[4]; hamster, in vivo",1.1 log10 and 1.2 log10
same,treatment-related adverse effects,[4]; zapnometinib-treated groups vs vehicle-treated group,no treatment-related adverse effects were observed
same,IL-8/CXCL-8 levels,[5]; up to day 30,slight but not statistically significant increase
same,TNF-α levels,[5]; up to day 30,no changes
same,MCP-1 levels,"[5]; up to day 30, 900 mg D1 then 600 mg daily D2-6, p = <0.0001",significant reduction
same,IL-6 levels,"[5]; up to day 30, p = 0.0017",significantly reduced
same,IFNγ levels,"[5]; up to day 30, p = <0.0001",significant reduction
same,MIP-1α levels,"[5]; up to day 30, p = <0.0001",significant reduction
same,"expression of most of the 84 genes (e.g. Il1b, IL-6, ccl2, cxcl1, cxcl10, ccl3)","[6]; 5 mg/kg LPS i.p., 25 mg/kg p.o. 1 h post-stimulation, lung, 6 h post treatment, vs control",downregulated
same,Cxcl1 gene expression in lung tissue,[6]; 25 mg/kg p.o. 1 h after LPS,significantly reduced
same,Il6 gene expression in lung tissue,[6]; 25 mg/kg p.o. 1 h after LPS,significantly reduced
same,Tnf gene expression in lung tissue,[6]; 25 mg/kg p.o. 1 h after LPS,significantly reduced
same,Ifna2 gene (IFN-α) expression,"[6]; 25 mg/kg p.o. 1 h after LPS, lung, p = 0.118",not significantly downregulated

# Source: article PMC12498288 (Frontiers in Immunology, 2025)
